Experimental data taken from article PMC4683533, “Discovery of novel INK4C small-molecule inhibitors to promote human and murine hematopoietic stem cell ex vivo expansion” (Scientific Reports, 2015).

What was measured:
HSCs (CD34−LKS cells) = experiment: single hematopoietic stem cell in vitro culture (nmEM colony) assay; type: cell-based, mouse; conditions: 12.5 nM, 14-day treatment
Method: We biologically assessed the 22 putative p18SMI compounds for their ability to maintain HSCs stem cell characteristics, to be specific self-renewal and multi-lineage differentiation, using single cell cultures. […] Thus, we employed single HSC culture to assess p18SMI compounds’ effect upon HSCs. CD34^−LKS cells from C57BL/6 mice were individually deposited into a 96-well plate (one cell/well). The single cell was cultured for 14 days in 100 μL of serum-free medium (Gibco) containing 100 ng/mL of mouse stem cell factor (SCF), 10 ng/mL of mouse interleukin-3 (IL-3), 25 ng/mL of human thrombopoietin (TPO), 2 U/mL of human erythropoietin (EPO) and differing concentrations of the p18SMI compound. Cells were cultured 14 days for in vitro colony formation and colonies were then cytospined and analyzed by flow cytometry to test the subpopulation of cultured cells. Neutrophils (n), macrophages (m), erythroblasts (E) or megakaryocytes (M) were identified by the cell marker of Gr-1, Mac-1, Ter-119 and CD41 using flow cytometry. The wells from each group that generated all lineages (nmEM) were counted and the ratio to the control group (DMSO) was calculated.
Single CD34^-LKS cells from C57BL/6 mice were individually deposited into each well of a 96-well plate along with 100 μL of serum free medium (Gibco) containing 100 ng/mL of mouse SCF, 10 ng/mL of mouse IL-3, 25 ng/mL of human TPO, 2 U/mL of human EPO and p18SMI compounds (different dilutions). Cells were cultured in a 37 °C, 5% CO2 incubator for 14 days for ex vivo colony formation. Colonies were then cytospined and analyzed using flow cytometry. Neutrophils (n), macrophages (m), erythroblasts (E) or megakaryocytes (M) were identified based on their cell surface maker, Gr-1, Mac-1, Ter119 and CD41. Cells were measured on an FACS analyzer (FACSArray, BD Biosciences). […] The wells from each group that generated all lineages (nmEM) were counted. The ratio of p18SMI compound treatment group to the control group (DMSO-treated) was calculated and fitted to a curve to calculate the ED50 value using GraphPad Prism v6.0.

[1] = tested on: c-Kit-enriched mouse BM cells (HSPC, LT-HSCs); experiment: ex vivo bulk culture of c-Kit-enriched BM cells with flow cytometry phenotyping; type: cell-based; conditions: 5 days culture with cytokines
Method: To investigate the effect of p18SMI compounds on murine HSCs, c-Kit-enriched mouse BM cells were cultured for 5 days with media containing cytokines and the p18SMI compounds. […] Lin^−Sca-1^+(LS) cells were further analyzed using a combination of CD150 and CD48 (SLAM code) biomarkers for HSC identification. CD150^+ CD48^−KSLs (hereafter referred to as SLAM^+) cells are enriched for long term (LT)-HSCs.
HSCs expansion medium consists of BIT9500 (Stem Cell Technologies) supplemented with 50 ng/mL recombinant mouse (rm) SCF, 20 ng/mL FMS-like tyrosine kinase 3 ligand (Flt3L) and 10 ng/mL thrombopoietin (Tpo) (all from PeproTech, Inc.). p18SMI compounds were added where indicated. Bone marrow cells were harvested from C57BL/6 mice and made into a single-cell suspension. After immunomagnetic c-Kit enrichment (cKit-conjugated microbeads [MiltenyiBiotec, Bergisch-Gladbach]), cells were washed and resuspended in HSCs expansion medium. After culture, total nucleated cell counts were obtained, and a fraction of mononuclear cells (MNCs) or whole bone marrow cells were stained for flow cytometry analysis. Frequency of each cell population was determined by independently analyzing more than 5 × 10^5 cells per sample in triplicate.
For stem-cell quantitation, the cultured bone marrow nucleated cells were co-stained with a combination of PE-Cy7 labeled antibodies against mouse CD3, CD4, CD8, B220, Gr-1, Mac-1 and TER-119, anti-Sca-1-PercpCy5.5, anti-CD48-PE and anti-CD150-APC (all from Biolegend). DAPI was used for dead-cell discrimination. Due to the presence of cytokine stem cell factor (SCF), we could not detect the c-Kit marker of those cultured cells. […] Flow cytometry and flow sorting were conducted with a CyAn (DakoCytomation) or a FACSCalibur system (BD Biosciences). FlowJo software Version 7.6.2 (TreeStar) was used for data analysis.

HSCs (bone marrow MNCs) = experiment: cobblestone area forming cells (CAFC) assay with limiting dilution assay (LDA); type: cell-based, mouse; conditions: day 35
Method: We also investigated whether the increased number of phenotypic SLAM^+LT-HSCs in short-term culture assays was correlated with an increase in functional LT-HSCs. Cobblestone area forming cells (CAFC) assay combined with limiting-dilution assays (LDA) were performed to measure the frequency of HSCs[19][22][30]. Compared with the control group (HSC frequency is 1 in 112,559 of the original plated cells), the frequency of HSC at day 35 (indicating the activity of hematopoietic reconstitution capacity) was 2.7-fold and 3.0-fold higher in the cultures treated with XIE18–6 (HSC frequency is 1 in 42,490 of the original plated cells) and compound 40 (HSC frequency is 1 in 37,524 of the original plated cells) (p < 0.001, Fig. 3C), respectively.
Freshly isolated bone marrow MNCs from mice, 6–8 weeks old, were plated in a 24-well plate with 1 mL Dexter’s medium at a density of 2 × 10^6 cells per mL in the absence or presence of different doses of the tested compounds. The culture was maintained at 33 °C with 5% CO2. The number of cobblestone areas (CAs) was counted weekly. The medium was also replaced with half fresh medium on a weekly basis. For the limiting dilution analysis (LDA) of the test cells, different limiting doses were plated on the irradiated stromal cells in 96-well plates containing 200 μL of M5300 medium (StemCell Technologies) supplemented with 10^−6 M hydrocortisone. Each group was done with 20 replicates well. Small-molecule compounds were added to the co-culture system at different doses. Half of the medium in each well was replaced with fresh medium containing the test compounds weekly. The existence of CA in each well was evaluated under an inverted microscope at weekly intervals for 5 weeks. Based on the Poisson distribution of the negative wells, the frequency of long-term initiating cells was calculated with L-Calc software (StemCell Technologies).

O=C([O-])c1ccc(S(=O)(=O)NC2CCCCC2)cc1.[Na+] [Compound 40, sodium 4-(N-cyclohexylsulfamoyl)benzoate]
increase of nmEM colonies as compared to the control group (HSCs (CD34−LKS cells)): 3.16 fold | increase of absolute number of Lin-Sca-1+ hematopoietic stem/progenitor cells (HSPC) [1]: 2.29 fold | increase of number of LT-HSCs (CD150+CD48− SLAM+) [1]: 2.61 fold | total cellularity (total cell) [1]: slight increase | HSC frequency (1 in x of the original plated cells) (HSCs (bone marrow MNCs)): 37,524 | frequency of HSC, fold higher than control group (HSCs (bone marrow MNCs)): 3.0 fold
